According to PubChem BioAssay AID256 (DTP/NCI, 2004):
Where “and” joins values, the source holds several entries; their conditions need not be identical. Identical values can stand only once. Inconclusive results and toxic doses are left out. Rule for the calls: active = survival T/C of 150% or more; inactive = T/C below 125% in these data.

System: CD2F1 mice, L1210 leukemia ip, survival T/C
Experiment: NCI In Vivo Anticancer Drug Screen. Data for tumor model L1210 Leukemia (intraperitoneal) in CD2F1 (CDF1) mice
Details: higher = longer survival
Method in brief: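 In this screen, transplantable tumors were grown in mice given either the compound or its vehicle. Results were expressed as the treated measurement relative to the control measurement.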

[1] = endpoint: mean survival time, dose: 100.0 mg/kg/injection, schedule: Q04DX003 (ip), vehicle: saline with Tween-80
[2] = endpoint: mean survival time, dose: 200.0 mg/kg/injection, schedule: Q04DX003 (ip), vehicle: saline with Tween-80
[3] = endpoint: mean survival time, dose: 50.0 mg/kg/injection, schedule: Q01DX009 (ip), vehicle: saline with Tween-80
[4] = endpoint: mean survival time, dose: 100.0 mg/kg/injection, schedule: Q01DX009 (ip), vehicle: saline with Tween-80

Measured: T/C

S=P(N1CC1)(N1CC1)N1CC1
active: endpoint: mean survival time, dose: 4.0 mg/kg/injection, schedule: Q01DX007 (ip), vehicle: saline 158 % of control | endpoint: mean survival time, dose: 4.0 mg/kg/injection, schedule: Q01DX009 (ip), vehicle: saline 154 % of control and 166 % of control and 171 % of control | endpoint: mean survival time, dose: 8.0 mg/kg/injection, schedule: Q03DX003 (ip), vehicle: saline 209 % of control | endpoint: mean survival time, dose: 8.0 mg/kg/injection, schedule: Q04DX003 (ip), vehicle: saline 179 % of control and 183 % of control | endpoint: mean survival time, dose: 10.0 mg/kg/injection, schedule: Q04DX003 (ip), vehicle: saline 153 % of control | endpoint: mean survival time, dose: 12.0 mg/kg/injection, schedule: Q01DX001 (ip), vehicle: saline 153 % of control | endpoint: mean survival time, dose: 15.0 mg/kg/injection, schedule: Q01DX001 (ip), vehicle: saline 161 % of control | endpoint: mean survival time, dose: 16.0 mg/kg/injection, schedule: Q01DX001 (ip), vehicle: saline 154 % of control | endpoint: mean survival time, dose: 16.0 mg/kg/injection, schedule: Q01DX001 (iv), vehicle: saline 155 % of control | endpoint: mean survival time, dose: 22.4 mg/kg/injection, schedule: Q01DX001 (ip), vehicle: saline with Tween-80 163 % of control | endpoint: mean survival time, dose: 32.0 mg/kg/injection, schedule: Q01DX001 (oral), vehicle: saline 154 % of control | endpoint: median survival time, dose: 3.13 mg/kg/injection, schedule: Q01DX009 (ip), vehicle: saline 164 % of control and 178 % of control | endpoint: median survival time, dose: 20.0 mg/kg/injection, schedule: Q01DX001 (ip), vehicle: saline 172 % of control | endpoint: median survival time, dose: 25.0 mg/kg/injection, schedule: Q01DX001 (ip), vehicle: saline 193 % of control
inactive: endpoint: mean survival time, dose: 0.5 mg/kg/injection, schedule: Q01DX009 (ip), vehicle: saline 112 % of control | endpoint: mean survival time, dose: 0.5 mg/kg/injection, schedule: Q03HX024 (ip), vehicle: saline 112 % of control | endpoint: mean survival time, dose: 1.0 mg/kg/injection, schedule: Q01DX005 (iv), vehicle: saline 101 % of control | endpoint: mean survival time, dose: 1.0 mg/kg/injection, schedule: Q01DX009 (ip), vehicle: saline 96 % of control and 112 % of control | endpoint: mean survival time, dose: 1.0 mg/kg/injection, schedule: Q01DX009 (sc), vehicle: saline 114 % of control | endpoint: mean survival time, dose: 1.0 mg/kg/injection, schedule: Q03HX008 (ip), vehicle: saline 106 % of control | endpoint: mean survival time, dose: 1.0 mg/kg/injection, schedule: Q03HX016 (ip), vehicle: saline 104 % of control | endpoint: mean survival time, dose: 1.5 mg/kg/injection, schedule: Q01DX009 (ip), vehicle: saline 111 % of control | endpoint: mean survival time, dose: 2.0 mg/kg/injection, schedule: Q01DX005 (iv), vehicle: saline 108 % of control | endpoint: mean survival time, dose: 2.0 mg/kg/injection, schedule: Q01DX009 (ip), vehicle: saline 120 % of control and 122 % of control (2×) | endpoint: mean survival time, dose: 2.0 mg/kg/injection, schedule: Q03DX003 (ip), vehicle: saline 112 % of control | endpoint: mean survival time, dose: 2.0 mg/kg/injection, schedule: Q03HX008 (ip), vehicle: saline 118 % of control | endpoint: mean survival time, dose: 2.0 mg/kg/injection, schedule: Q03HX016 (ip), vehicle: saline 117 % of control | endpoint: mean survival time, dose: 2.0 mg/kg/injection, schedule: Q03HX024 (ip), vehicle: saline 88 % of control | endpoint: mean survival time, dose: 2.0 mg/kg/injection, schedule: Q04DX003 (ip), vehicle: saline 101 % of control | endpoint: mean survival time, dose: 2.5 mg/kg/injection, schedule: Q04DX003 (ip), vehicle: saline 101 % of control | endpoint: mean survival time, dose: 4.0 mg/kg/injection, schedule: Q01DX001 (iv), vehicle: saline 117 % of control | endpoint: mean survival time, dose: 4.0 mg/kg/injection, schedule: Q01DX001 (sc), vehicle: saline 103 % of control | endpoint: mean survival time, dose: 4.0 mg/kg/injection, schedule: Q01DX009 (oral), vehicle: saline 122 % of control | endpoint: mean survival time, dose: 4.0 mg/kg/injection, schedule: Q04DX003 (ip), vehicle: saline 120 % of control | endpoint: mean survival time, dose: 6.0 mg/kg/injection, schedule: Q01DX001 (ip), vehicle: saline 115 % of control | endpoint: mean survival time, dose: 7.7 mg/kg/injection, schedule: Q01DX001 (ip), vehicle: saline with Tween-80 112 % of control | endpoint: mean survival time, dose: 7.7 mg/kg/injection, schedule: Q01DX001 (ip), vehicle: saline 123 % of control and 106 % of control | endpoint: mean survival time, dose: 8.0 mg/kg/injection, schedule: Q01DX001 (ip), vehicle: saline 110 % of control | endpoint: mean survival time, dose: 8.0 mg/kg/injection, schedule: Q01DX001 (sc), vehicle: saline 115 % of control | endpoint: mean survival time, dose: 8.0 mg/kg/injection, schedule: Q01DX007 (ip), vehicle: saline 110 % of control | endpoint: mean survival time, dose: 8.0 mg/kg/injection, schedule: Q01DX009 (sc), vehicle: saline 114 % of control | endpoint: mean survival time, dose: 8.0 mg/kg/injection, schedule: Q08DX002 (ip), vehicle: saline 122 % of control | endpoint: mean survival time, dose: 10.9 mg/kg/injection, schedule: Q01DX001 (ip), vehicle: saline with Tween-80 122 % of control | endpoint: mean survival time, dose: 10.9 mg/kg/injection, schedule: Q01DX001 (ip), vehicle: saline 122 % of control and 124 % of control | endpoint: mean survival time, dose: 16.0 mg/kg/injection, schedule: Q01DX009 (ip), vehicle: saline 96 % of control | endpoint: mean survival time, dose: 16.0 mg/kg/injection, schedule: Q01DX009 (oral), vehicle: saline 120 % of control | endpoint: mean survival time, dose: 16.0 mg/kg/injection, schedule: Q04DX003 (ip), vehicle: saline 95 % of control | endpoint: mean survival time, dose: 20.0 mg/kg/injection, schedule: Q04DX003 (ip), vehicle: saline 124 % of control | endpoint: mean survival time, dose: 32.0 mg/kg/injection, schedule: Q01DX001 (ip), vehicle: saline with Tween-80 89 % of control | endpoint: median survival time, dose: 1.56 mg/kg/injection, schedule: Q01DX009 (ip), vehicle: saline 117 % of control | endpoint: median survival time, dose: 3.0 mg/kg/injection, schedule: Q01DX009 (ip), vehicle: water 97 % of control | endpoint: median survival time, dose: 6.0 mg/kg/injection, schedule: Q01DX009 (ip), vehicle: water 95 % of control | endpoint: median survival time, dose: 8.0 mg/kg/injection, schedule: Q01DX009 (ip), vehicle: water 88 % of control | endpoint: median survival time, dose: 12.5 mg/kg/injection, schedule: Q01DX009 (ip), vehicle: saline 88 % of control and 107 % of control | endpoint: median survival time, dose: 16.0 mg/kg/injection, schedule: Q01DX009 (ip), vehicle: water 77 % of control

Cc1ccc(S(=O)(=O)OCCCCOS(=O)(=O)c2ccc(C)cc2)cc1
inactive: endpoint: mean survival time, dose: 100.0 mg/kg/injection, schedule: Q04DX003 (ip), vehicle: other 105 % of control | endpoint: mean survival time, dose: 200.0 mg/kg/injection, schedule: Q04DX003 (ip), vehicle: other 94 % of control | endpoint: mean survival time, dose: 400.0 mg/kg/injection, schedule: Q04DX003 (ip), vehicle: other 96 % of control

O=C(O)C(=O)O.[Mn]
inactive: [1] 100 % of control | [2] 100 % of control | endpoint: mean survival time, dose: 400.0 mg/kg/injection, schedule: Q04DX003 (ip), vehicle: saline with Tween-80 96 % of control

O=C(O)Cc1ccccc1C(=O)O.[Pb]
inactive: [3] 102 % of control | [4] 102 % of control | [1] 93 % of control | [2] 98 % of control

N#CCC(C#N)N1CCOCC1 (stereo unspecified)
inactive: endpoint: mean survival time, dose: 25.0 mg/kg/injection, schedule: Q01DX009 (ip), vehicle: saline with Tween-80 98 % of control | [3] 102 % of control | [4] 102 % of control

CCCCNC(=O)NC(=O)CCl
inactive: endpoint: mean survival time, dose: 100.0 mg/kg/injection, schedule: Q04DX003 (ip), vehicle: saline 97 % of control | endpoint: mean survival time, dose: 200.0 mg/kg/injection, schedule: Q04DX003 (ip), vehicle: saline 101 % of control | endpoint: mean survival time, dose: 400.0 mg/kg/injection, schedule: Q04DX003 (ip), vehicle: saline 97 % of control

C=C(C)C12OC3(c4ccccc4)OC1C1C4OC4(CO)C(O)C4(O)C(=O)C(C)=CC4C1(O3)C(C)C2OC(=O)c1ccccc1 (stereo unspecified)
inactive: endpoint: mean survival time, dose: 0.1 mg/kg/injection, schedule: Q01DX009 (ip), vehicle: saline 96 % of control | endpoint: mean survival time, dose: 0.2 mg/kg/injection, schedule: Q01DX009 (ip), vehicle: saline 98 % of control | endpoint: mean survival time, dose: 0.4 mg/kg/injection, schedule: Q01DX009 (ip), vehicle: saline 98 % of control | endpoint: mean survival time, dose: 0.8 mg/kg/injection, schedule: Q01DX009 (ip), vehicle: saline 100 % of control

COc1cccc(C(=O)O)c1C(=O)O
inactive: endpoint: mean survival time, dose: 12.5 mg/kg/injection, schedule: Q01DX005 (ip), vehicle: other 92 % of control | endpoint: mean survival time, dose: 25.0 mg/kg/injection, schedule: Q01DX005 (ip), vehicle: other 92 % of control | endpoint: mean survival time, dose: 50.0 mg/kg/injection, schedule: Q01DX005 (ip), vehicle: other 89 % of control | endpoint: mean survival time, dose: 100.0 mg/kg/injection, schedule: Q01DX005 (ip), vehicle: other 98 % of control | endpoint: mean survival time, dose: 200.0 mg/kg/injection, schedule: Q01DX005 (ip), vehicle: other 101 % of control | endpoint: mean survival time, dose: 400.0 mg/kg/injection, schedule: Q01DX005 (ip), vehicle: other 96 % of control
